# Substitutions are numbered along the chain they refer to. Numbers in names are those of the source. Entries after “also recorded” stand apart in the source; their conditions may differ.
# B1: S165A, N172A, K372A triple mutant: cGAS dsDNA-binding triple mutant (protein)
# chain: PDKLKKVLDKLRLKRKDIAEAAETVAKVVERLLRRMQKRESEFKGVEQLNTGSYYEHVKISAPNEFDVMFKLEVPRIELQEYYETGAFYLVKFKRIPRGNPLSHFLEGEVLSATKMLSKFRKIIKEEVKEIKDIDVSVEKEKPGSPAVTLLIRNPEEISVDIILALESKGSWPISTKEGLPIQGWLGTKVRTNLRREPFYLVPKNAKDGNSFQGETWRLSFSHTEAYILNNHGIEKTCCESSGAKCCRKECLKLMKYLLEQLKKEFQELDAFCSYHVKTAIFHMWTQDPQDSQWDPRNLSSCFDKLLAFFLECLRTEKLDHYFIPKFNLFSQELIDRKSKEFLSKKIEYERNNGFPIFDKL
# B2: N196A, Y200A, K372A triple mutant: cGAS dsDNA-binding triple mutant (protein)
# chain: B1 chain with A19S, A26N, N50A, Y54A
# B3: S165A, N172A, Y200A triple mutant: cGAS dsDNA-binding triple mutant (protein)
# chain: B1 chain with Y54A, A226K
# B4: R158A, R161A, K395A triple mutant: cGAS dsDNA-binding triple mutant (protein)
# chain: B1 chain with R12A, R15A, A19S, A26N, A226K, K249A
# Assays:
# cGAS [1] = target: T1, cGAS (Mus musculus, UniProt Q8C6L5); experiment: cGAS activity assay, c[G(2′,5′)pA(3′,5′)p] formation by thin-layer chromatography; type: biochemical; settings: for cyclic dinucleotide formation with the nucleotide as cGAS substrate in place of GTP or ATP (in words): cGAS plus dsDNA
# T1 construct: Purified recombinant full length (fl, amino acids 1-507) and truncated (tr, amino acids 147-507) murine cGAS; His6-SUMO (N, cleaved yes); made in house; host or cells: E. coli BL21 (DE3) RIL
# Source text: (§1) To validate the structural results, we established an activity assay using thin-layer chromatography (FIG. 11) and monitored cyclic dinucleotide c[G(2′,5′)pA(3′,5′)p] formation from ATP and GTP using purified recombinant full-length and truncated cGAS proteins. cGAS required the presence of dsDNA and Mg^2+ or Mn^2+ for activity (FIG. 5A-B). […] The trace amount of c[G(2′,5′)pA(3′,5′)p]detected for the specific ssDNA used in this experiment was attributable to a stretch of sequence complementarity, and the substitution of G by 8-oxoguanine (8-oxoG) was sufficient to destabilize its predicted interaction and eliminate the residual cGAS activity.
# (§2) Purified recombinant full length (fl, amino acids 1-507) and truncated (tr, amino acids 147-507) murine cGAS, including truncated mutant versions 1-6, were incubated in 20 μL reactions containing: 1 μM cGAS, 3.3 μM dsDNA, 5 mM MgCl2, 150 mM NaCl, 20 mM Tris-HCl, pH 7.5 at 25° C., 1 mM DTT, 10% glycerol, 1 mM each of nucleotides (typically ATP and GTP), and α^32P or γ^32P radiolabelled NTPs or dNTPs at 37° C. for 40 min. Reactions were stopped by addition of 20 μL of 50 mM EDTA. 2 μL of reaction solution was spotted onto high-performance TLC plates (HPTLC silica gel, 60 Å pores, F254, 10×10 cm, cat #1.05628.0001, EMD Millipore) and products were separated with Solvent 1 (NH4HCO3:C2H5OH:H2O [0.2 M:30%:70%], w:v:v) or 2 (NH4HCO3:C2H5OH:H2O [0.025 M:30%:70%], w:v:v) at 25° C. for 1 h. Reaction products were visualized by UV (254 nm) and phosphorimaging (Typhoon FLA 9500, GE Healthcare). Images were processed using Adobe Photoshop and Illustrator CS5. The TLC conditions used were largely based on a protocol established to separate 3′,5′ cAMP (Higashida et al, 2012).
# (§3) The yield of c[G(2′,5′)pA(3′,5′)p] generated was calculated by densitometry analysis of TLC experiments, using FIJI (ImageJ 1.47i) or spectrophotemetrically (absorbance at 260 nm, E260=25.4×10^3) after purification from HPLC. For densitometry analyses, the fraction of α^32P-labelled c[G(2′,5′)pA(3′,5′)p] over total radioactivity per lane (c[G(2′,5′)pA(3′,5′)p]plus remaining α^32P-labelled ATP or GTP) was calculated.
# [2] = system: IFN-β luciferase reporter; experiment: IFN-β luciferase reporter assay in HEK 293 cells co-expressing cGAS and STING; type: cell-based; settings: for cGAS function in cells (in words): alanine mutants of full-length cGAS expressed in HEK 293 cells
# Source text: To assess the impact on cGAS function in cells, we generated additional alanine mutants of cGAS for expression in mammalian cells. The full-length cGAS mutants together with STING and an IFN-β luciferase reporter were transiently expressed in HEK 293 cells. […] (Arg364, Tyr 421; FIG. 2F, 4B), while single mutants of these residues only slightly impaired cGAS function (FIG. 7C). […] Similarly, conversion of the highly mobile Gly198 to sterically restricted proline abrogated cGAS activity (FIG. 13E).
# 3×10^4 HEK293 cells per 96-well were reverse-transfected in triplicates with a mixture of pGL3-IFNbeta-Gluc (50 ng), pLenti-EF1-Fluc (25 ng), pLenti-EF1-mSTING (25 ng) and cGAS-expression plasmid (25 ng, pMAX-cGAS WT or mutants) or Control plasmid pMAX-GFP (Amaxa) using Trans-IT LT1 (MirusBio, Madison, Wis.). After 36 h cells were lysed in passive lysis buffer. Firefly and gaussia Luciferase activities were determined on an EnVision reader (Perkin Elmer, Waltham, Mass.) using the respective substrates D-luciferin and coelenterazine (PJK GmbH, Kleinblittersdorf, Germany). IFNbeta-Gluc values were normalized to constitutive firefly luciferase values and fold induction was calculated in relation to control-plasmid pMAX-GFP.
# cGAS [3] = experiment: cGAS activity assay, c[G(2′,5′)pA(3′,5′)p] formation by thin-layer chromatography; type: biochemical, mouse; settings: for c[G(2′,5′)pA(3′,5′)p] formation by cGAS protein in vitro (in words): purified recombinant cGAS incubated with DNA
# Source text: as §1, §2, §3
# THP 1 cells = settings: concentrations as low as; cited from earlier work
# Raw264.7 cells = settings: concentrations as low as; cited from earlier work
# T1 sequence (Q8C6L5 whole entry, the tested form may be a part): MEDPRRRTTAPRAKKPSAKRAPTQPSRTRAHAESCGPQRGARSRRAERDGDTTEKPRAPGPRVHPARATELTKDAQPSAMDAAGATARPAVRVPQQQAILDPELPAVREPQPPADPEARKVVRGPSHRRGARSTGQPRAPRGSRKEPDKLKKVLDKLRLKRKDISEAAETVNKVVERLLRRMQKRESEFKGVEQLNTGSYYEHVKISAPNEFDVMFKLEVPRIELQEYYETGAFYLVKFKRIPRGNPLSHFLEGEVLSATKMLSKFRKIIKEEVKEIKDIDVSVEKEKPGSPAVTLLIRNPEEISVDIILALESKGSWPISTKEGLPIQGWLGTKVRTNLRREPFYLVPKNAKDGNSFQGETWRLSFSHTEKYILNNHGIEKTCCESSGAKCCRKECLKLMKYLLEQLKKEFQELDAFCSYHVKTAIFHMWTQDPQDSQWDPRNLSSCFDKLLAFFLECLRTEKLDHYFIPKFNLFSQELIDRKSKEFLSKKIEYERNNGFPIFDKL
Molecule,cGAS function in cells (in words) [2],"c[G(2′,5′)pA(3′,5′)p] formation by cGAS protein in vitro (in words) (cGAS [3])",other results
"Nc1ncnc2c1ncn2[C@H]1C[C@H](O)[C@@H](COP(=O)(O)OP(=O)(O)OP(=O)(O)O)O1 [2′-dATP, reference compound]",,,cyclic dinucleotide formation with the nucleotide as cGAS substrate in place of GTP or ATP (in words) (cGAS [1]): forms; also recorded: markedly reduced formation of cyclic GA-dinucleotides
Arg161: cGAS single alanine mutant of DNA binding residue Arg161,not sufficient to impair cGAS activity,,
"Asp307: cGAS single mutant, catalytic residue Asp307 replaced by Ala",non-functional; also recorded: functionally dead,,
G198A: cGAS single mutant G198A,did not severely impair cGAS function,,
"Glu211: cGAS single mutant, catalytic residue Glu211 replaced by Ala",non-functional; also recorded: functionally dead,functionally dead,
"Y421A, R364A: cGAS dual mutant of the base stacking residues Arg364 and Tyr421",loss in the majority of activity,,cGAS function in cells (in words) ([2]; Tyr 421): abrogation of cGAS activity
"Nc1nc2c(ncn2[C@@H]2O[C@@H]3COP(=O)(O)O[C@H]4[C@@H](O)[C@H](n5cnc6c(N)ncnc65)O[C@@H]4COP(=O)(O)O[C@H]3[C@H]2O)c(=O)[nH]1 [c[G(3′,5′)pA(3′,5′)p]]",,,concentration at which production of interferon is stimulated (THP 1 cells): 10 nM; concentration at which production of interferon is stimulated (Raw264.7 cells): 10 nM
"Nc1nc2c(ncn2[C@H]2C[C@H](O)[C@@H](COP(=O)(O)OP(=O)(O)OP(=O)(O)O)O2)c(=O)[nH]1 [2′-dGTP, reference compound]",,,cyclic dinucleotide formation with the nucleotide as cGAS substrate in place of GTP or ATP (in words) (cGAS [1]): not at all; also recorded: unable to form a cyclic dinucleotide
S199A: cGAS single mutant S199A,did not severely impair cGAS function,retained substantial activity,
"cGAS: mouse cyclic GMP-AMP synthase, wild type, full length (amino acids 1-507), recombinant or expressed in cells",,,"enhanced luciferase activity compared to a control plasmid ([2]; HEK 293 cells, STING and IFN-β luciferase reporter transiently expressed): ~15 fold; estimated observed rate constant (cGAS [3]; multiple turnover conditions): 0.19 min⁻¹; turnovers per enzyme molecule (cGAS [3]; multiple turnover conditions, 40 min): over 750; original ATP and GTP converted to c[G(2′,5′)pA(3′,5′)p] (cGAS [3]; multiple turnover conditions, within 40 min, n=5): Over 78%"
"Nc1ncnc2c1ncn2[C@@H]1O[C@H](COP(=O)(O)O)[C@@H](O)[C@H]1O [AMP, reference compound]",,,cyclic dinucleotide formation with the nucleotide as cGAS substrate in place of GTP or ATP (in words) (cGAS [1]): no product or intermediate formation
"Nc1ncnc2c1ncn2[C@@H]1O[C@H](COP(=O)(O)OP(=O)(O)O)[C@@H](O)[C@H]1O [ADP, reference compound]",,,"cyclic dinucleotide formation with the nucleotide as cGAS substrate in place of GTP or ATP (in words) (cGAS [1]): reduced levels of c[G(2′,5′)pA(3′,5′)p]"
"Nc1ncnc2c1ncn2[C@@H]1O[C@H](COP(=O)(O)OP(=O)(O)OP(=O)(O)O)C[C@H]1O [3′-dATP, reference compound]",,,cyclic dinucleotide formation with the nucleotide as cGAS substrate in place of GTP or ATP (in words) (cGAS [1]): markedly reduced formation of cyclic GA-dinucleotides
"cGAS (tr): truncated murine cGAS, amino acids 147-507",,"exhibits activity, albeit less than cGAS (fl)",
"Asp213: cGAS single mutant, catalytic residue Asp213 replaced by Ala",non-functional; also recorded: functionally dead,,
"16 bp dsDNA: 16 bp dsDNA used for crystallography (SEQ ID NO: 47 and 48) (chain 1 AAATTGCCGAAGACGAA; chain 2 TTTCGTCTTCGGCAATT; DNA, backbone not given here) [reference compound]",,,stimulation of cGAS cyclic dinucleotide formation by the nucleic acid (in words) (cGAS [1]; ATP and GTP as substrates): elicited some activity
"Nc1nc2c(ncn2[C@@H]2O[C@H](COP(=O)(O)OP(=O)(O)O)[C@@H](O)[C@H]2O)c(=O)[nH]1 [GDP, reference compound]",,,cyclic dinucleotide formation with the nucleotide as cGAS substrate in place of GTP or ATP (in words) (cGAS [1]): reduced amount of the cylic-dinucleotide
B1,complete loss in activity and ability to stimulate interferon production,complete loss in activity,
B2,complete loss in activity and ability to stimulate interferon production,complete loss in activity,
B3,partial loss in activity,partial loss in activity,
B4,complete loss in activity and ability to stimulate interferon production,complete loss in activity,
